The text below walks through data of patent US6069165A, “Pharmaceutical compositions containing amisulpride and their therapeutic applications” (Synthelabo, priority 1996, dated 2000).

What is called bioavailability is dose-corrected exposure relative to a reference, in per cent. A low value points to poor availability.

A short description of this data set: Bioavailability of amisulpride administered by the oral route. As to conditions: in vivo, conventional amisulpride, of the order of.

Turning to `CCN1CCCC1CNC(=O)c1cc(S(=O)(=O)CC)c(N)cc1OC` (stereo not shown) [amisulpride, 4-amino-N-[(1-ethylpyrrolidin-2-yl)methyl]-5-(ethylsulphonyl)-2-methoxybenzamide], the bioavailability is 35 to 45%.
